Biological target: PKM2 (Homo sapiens, UniProt P14618)
Assay: PKM2 Assay (activation, LDH-coupled, absorbance at 340 nm)
Format: biochemical
Conditions: Table 4
In short: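 Human PKM2 (50 ng/well) was preincubated with compound and coupling mix for 30 min at 4 °C without ADP. Reactions were then started with ADP (0.7 mM) alongside PEP 0.15 mM, NADH 180 μM and LDH, in Tris pH 7.5/KCl/MgCl2/DTT/BSA buffer. A340 was followed at 25 °C and activation reported as AC50.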

PKM2, sequence (P14618 whole entry): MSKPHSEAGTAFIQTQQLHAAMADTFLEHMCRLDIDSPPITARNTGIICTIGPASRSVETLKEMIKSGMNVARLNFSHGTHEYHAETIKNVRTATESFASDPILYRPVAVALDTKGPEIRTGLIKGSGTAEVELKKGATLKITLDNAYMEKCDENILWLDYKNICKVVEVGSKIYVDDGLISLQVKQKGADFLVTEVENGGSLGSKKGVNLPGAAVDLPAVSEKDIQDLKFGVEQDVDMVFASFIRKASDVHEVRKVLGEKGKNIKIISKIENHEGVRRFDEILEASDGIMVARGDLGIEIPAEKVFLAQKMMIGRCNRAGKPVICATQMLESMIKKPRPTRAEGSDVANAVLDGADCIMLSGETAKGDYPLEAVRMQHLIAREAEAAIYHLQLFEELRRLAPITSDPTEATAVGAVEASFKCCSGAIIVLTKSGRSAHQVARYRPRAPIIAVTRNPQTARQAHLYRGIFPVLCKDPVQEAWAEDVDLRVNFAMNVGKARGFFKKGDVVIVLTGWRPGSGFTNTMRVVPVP

First: CC(C)[C@H]1CN(C(C)c2ccc(F)cc2)CCN1C(=O)c1ccc(NS(=O)(=O)c2cccc3cccnc23)cc1 (stereo partly drawn) [Compound 177]
Second: CC(c1ccc(F)cc1)N1CCN(C(=O)c2ccc(NS(=O)(=O)c3cccc4cccnc34)cc2)[C@H](C)C1 (stereo partly drawn) [Compound 133, N-(4-((2R)-4-(1-(4-fluorophenyl)ethyl)-2-methylpiperazine-1-carbonyl)phenyl)quinoline-8-sulfonamide]
The AC50 of the first is higher: 1 to 20 µM for the first, under 0.1 µM for the second.

CC(c1cc(F)c(F)cc1F)N1CCN(C(=O)c2ccc(NS(=O)(=O)c3cccc4cccnc34)cc2)[C@@H](C)C1 (stereo partly drawn) [Compound 174] and CC(c1cc(F)c(F)cc1F)N1CCN(C(=O)c2ccc(NS(=O)(=O)c3cccc4cccnc34)cc2)[C@H](C)C1 (stereo partly drawn) [Compound 168] fall in the same range of AC50: 0.1 to 0.5 µM for the first, 0.1 to 0.5 µM for the second.

First: CCOC(=O)N1CCN(C(=O)c2ccc(NS(=O)(=O)c3cccc4cccnc34)cc2)[C@H](C)C1 [Compound 109, (R)-Ethyl 3-methyl-4-(4-(quinoline-8-sulfonamido)benzoyl)piperazine-1-carboxylate]
Second: C[C@H]1CN(Cc2ccc(F)cc2)CCN1C(=O)c1ccc(NS(=O)(=O)c2cccc3cccnc23)cc1 [Compound 152, (S)—N-(4-(4-(4-fluorobenzyl)-2-methylpiperazine-1-carbonyl)phenyl)quinoline-8-sulfonamide]
The AC50 of the first is higher: 0.1 to 0.5 µM for the first, under 0.1 µM for the second.

CC(c1ccc(F)cc1F)N1CCN(C(=O)c2ccc(NS(=O)(=O)c3cccc4cccnc34)cc2)[C@H](C)C1 (stereo partly drawn) [Compound 160, N-(4-((2R)-4-(1-(2,4-difluorophenyl)ethyl)-2-methylpiperazine-1-carbonyl)phenyl)quinoline-8-sulfonamide] and C[C@H]1CN(Cc2cc(F)cc(F)c2)CCN1C(=O)c1ccc(NS(=O)(=O)c2cccc3cccnc23)cc1 [Compound 142, (S)—N-(4-(4-(3,5-difluorobenzyl)-2-methylpiperazine-1-carbonyl)phenyl)quinoline-8-sulfonamide] cannot be ordered by AC50: under 0.1 µM for the first, under 0.1 µM for the second.

Compared with CC1CN(Cc2ccc(F)cc2)CC(C)N1C(=O)c1ccc(NS(=O)(=O)c2cccc3cccnc23)cc1 (stereo not drawn) [Compound 196, N-(4-(4-(4-fluorobenzyl)-2,6-dimethylpiperazine-1-carbonyl)phenyl)quinoline-8-sulfonamide], O=C(c1ccc(NS(=O)(=O)c2cccc3cccnc23)cc1)N1CC2CCC(C1)N2Cc1ccc(F)cc1 [Compound 219, N-(4-(8-(4-fluorobenzyl)-3,8-diazabicyclo[3.2.1]octane-3-carbonyl)phenyl)quinoline-8-sulfonamide] is higher in AC50: under 0.1 µM for the first, 0.1 to 0.5 µM for the second.

For C[C@@H]1CN(Cc2ccc(F)c(F)c2F)CCN1C(=O)c1ccc(NS(=O)(=O)c2cccc3cccnc23)cc1 [Compound 118, (R)—N-(4-(2-methyl-4-(2,3,4-trifluorobenzyl)piperazine-1-carbonyl)phenyl)quinoline-8-sulfonamide], the AC50 was under 0.1 µM.

Same assay, conditions: Table 5

O=C(c1ccc(NS(=O)(=O)c2cccc3cccnc23)c(OC(F)(F)F)c1)N1CCN(Cc2c[nH]cn2)CC1 [Compound 381, N-(4-(4-((1H-imidazol-4-yl)methyl)piperazine-1-carbonyl)-2-(trifluoromethoxy)phenyl)quinoline-8-sulfonamide] and O=C(c1ccc(NS(=O)(=O)c2cccc3cccnc23)c(OC(F)(F)F)c1)N1CCN(Cc2ccncc2Cl)CC1 [Compound 307, N-(4-(4-((3-chloropyridin-4-yl)methyl)piperazine-1-carbonyl)-2-(trifluoromethoxy)phenyl)quinoline-8-sulfonamide] fall in the same range of AC50: 0.1 to 0.5 µM for the first, 0.1 to 0.5 µM for the second.

C[C@H](c1ccccc1)N1CCN(C(=O)c2ccc(NS(=O)(=O)c3cccc4cccnc34)cc2)CC1 [Compound 388, (R)—N-(4-(4-(1-phenylethyl)piperazine-1-carbonyl)phenyl)quinoline-8-sulfonamide] and CC(c1cccnc1)N1CCN(C(=O)c2ccc(NS(=O)(=O)c3cccc4cccnc34)cc2)CC1 (stereo not drawn) [Compound 370, N-(4-(4-(1-(pyridin-3-yl)ethyl)piperazine-1-carbonyl)phenyl)quinoline-8-sulfonamide] cannot be ordered by AC50: under 0.1 µM for the first, under 0.1 µM for the second.

O=C(c1ccc(NS(=O)(=O)c2cccc3cccnc23)cc1)N1CCN(Cc2cc(F)cc(F)c2)CC1 [Compound 394, N-(4-(4-(3,5-difluorobenzyl)piperazine-1-carbonyl)phenyl)quinoline-8-sulfonamide] and [2H]C(c1cc(F)cc(F)c1)N1CCN(C(=O)c2ccc(NS(=O)(=O)c3cccc4cccnc34)cc2)CC1 (stereo not drawn) [Compound 450, N-(4-(4-(3,5-difluorobenzyl)piperazine-1-carbonyl)phenyl)quinoline-8-sulfonamide-(D)] cannot be ordered by AC50: under 0.1 µM for the first, under 0.1 µM for the second.

COc1cc(NS(=O)(=O)c2cccc3cccnc23)ccc1C(=O)N1CCN(C2(c3ccccc3)CC2)CC1 [Compound 393, N-(3-methoxy-4-(4-(1-phenylcyclopropyl)piperazine-1-carbonyl)phenyl)quinoline-8-sulfonamide] and COc1cc(NS(=O)(=O)c2cccc3cccnc23)ccc1C(=O)N1CCN(C(C)(C)c2ccccc2)CC1 [Compound 355, N-(3-methoxy-4-(4-(2-phenylpropan-2-yl)piperazine-1-carbonyl)phenyl)quinoline-8-sulfonamide] cannot be ordered by AC50: under 0.1 µM for the first, under 0.1 µM for the second.

First: O=C(c1ccc(NS(=O)(=O)c2cccc3cccnc23)c(C(F)(F)F)c1)N1CCN(Cc2ccncc2)CC1 [Compound 328, N-(4-(4-(pyridin-4-ylmethyl)piperazine-1-carbonyl)-2-(trifluoromethyl)phenyl)quinoline-8-sulfonamide]
Second: O=C(c1ccc(NS(=O)(=O)c2cccc3cccnc23)c(OC(F)(F)F)c1)N1CCN(CC2CCOC2)CC1 (stereo not drawn) [Compound 302, N-(4-(4-((tetrahydrofuran-3-yl)methyl)piperazine-1-carbonyl)-2-(trifluoromethoxy)phenyl)quinoline-8-sulfonamide]
The AC50 of the first is higher: 1 to 20 µM for the first, 0.5 to 1 µM for the second.

Going from O=C(c1cnc(NS(=O)(=O)c2cccc3cccnc23)cn1)N1CCN(CC2CC2)CC1 [Compound 451, N-(5-(4-(cyclopropylmethyl)piperazine-1-carbonyl)pyrazin-2-yl)quinoline-8-sulfonamide] to O=C(c1ccc(NS(=O)(=O)c2cccc3cccnc23)cc1Cl)N1CCN(CC2CC2)CC1 [Compound 427, N-(3-chloro-4-(4-(cyclopropylmethyl)piperazine-1-carbonyl)phenyl)quinoline-8-sulfonamide], the AC50 falls from over 20 µM to under 0.1 µM.

O=C(c1ccc(NS(=O)(=O)c2cccc3cccnc23)c(OC(F)(F)F)c1)N1CCN(C(=O)c2cscn2)CC1 [Compound 324, N-(4-(4-(thiazole-4-carbonyl)piperazine-1-carbonyl)-2-(trifluoromethoxy)phenyl)quinoline-8-sulfonamide] and O=C(c1ccc(NS(=O)(=O)c2cccc3cccnc23)cc1)N1CCN(C(=O)c2cc[nH]n2)CC1 [Compound 350, N-(4-(4-(1H-pyrazole-3-carbonyl)piperazine-1-carbonyl)phenyl)quinoline-8-sulfonamide] fall in the same range of AC50: 0.1 to 0.5 µM for the first, 0.1 to 0.5 µM for the second.

First: O=C(c1ccc(NS(=O)(=O)c2cccc3cccnc23)cc1Cl)N1CCN(Cc2cc(F)c(F)c(F)c2)CC1 [Compound 434, N-(3-chloro-4-(4-(3,4,5-trifluorobenzyl)piperazine-1-carbonyl)phenyl)quinoline-8-sulfonamide]
Second: CCOC(=O)N1CCN(C(=O)c2ccc(NS(=O)(=O)c3cccc4cccnc34)cn2)CC1 [Compound 447, Ethyl 4-(5-(quinoline-8-sulfonamido)picolinoyl)piperazine-1-carboxylate]
The AC50 of the first is lower: under 0.1 µM for the first, 1 to 20 µM for the second.

Source: US8889667B2 (Agios Pharmaceuticals, Inc, priority 2010, dated 2014)
